Results from the supplement of paper PMC11208160.

Experiment: recombinant UMI read abundance after kanamycin selection (control-corrected) (log10(CPM+1)); higher = more efficient recombination; extreme values may be limits of the assay; sequences stand for … in AGTGCAGAGAAAATCGGCCAGTTTTCTCTGCCTGCAGTCCGCATGCCGTGGGACCCCTTGGGTTCTAACCTGTTGCCTAGATTTATGCAGCGGACTGCCTTTCTCCCAAAGTGATAAACCGG…AGGTTGGTTTCACT; site = the 11-nt donor
In short: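 Values, expressed as log10(CPM+1), derive from recombinant UMI counts converted to CPM, averaged across replicates and scaled by control-derived factors. Plating was with IPTG (0.07 mM) plus kanamycin or unselected, two replicates each. The screen pooled donor and donor-binding-loop pairs for the IS621 bridge recombinase in Escherichia coli.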
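Further: IS621 bridge recombinase in Escherichia coli cells against a fixed T5 target plasmid.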

Row | Sequence | recombinant UMI read abundance (log10)
1 | ATATCTACATGGACCGGTTTTCCCGGTAATCCGTATTTGTG (site AAATCTACTCA) | 0.252
2 | ATATCTACATGGACCGGTTTTCCCGGTAATCCGTATTTGTG (site ACATCTACTCA) | 0.246
3 | ATATCTACATGGACCGGTTTTCCCGGTAATCCGTATTTGTG (site AGATCTACTCA) | 0.401
4 | ATATCTACATGGACCGGTTTTCCCGGTAATCCGTATTTGTG (site ATATCTACTCA) | 0.895
5 | ATATCTGCATGGACCGGTTTTCCCGGTAATCCGTATTTGGC (site ATATCTGCTGC) | 0.5
6 | ATATGAACATGGACCGGTTTTCCCGGTAATCCGTATTTGTC (site ATATGAACTGA) | 2.77
7 | ATATGTCCATGGACCGGTTTTCCCGGTAATCCGTATTTGTC (site ATATGTCCTGA) | 0.623
8 | ATATTGTCATGGACCGGTTTTCCCGGTAATCCGTATTTGTC (site ATATTGTCTGA) | 3.25
9 | ATCAAGGCATGGACCGGTTTTCCCGGTAATCCGTATTTGCG (site ATCAAGGCTCG) | 1.32
10 | ATCAATACATGGACCGGTTTTCCCGGTAATCCGTATTTGAC (site ATCAATACTGT) | 1.74
11 | ATCAATACATGGACCGGTTTTCCCGGTAATCCGTATTTGAC (site ATCCATACTGT) | 0
12 | ATCAATACATGGACCGGTTTTCCCGGTAATCCGTATTTGAC (site ATCGATACTGT) | 2.2
13 | ATCAATACATGGACCGGTTTTCCCGGTAATCCGTATTTGAC (site ATCTATACTGT) | 0
14 | ATCAGAACATGGACCGGTTTTCCCGGTAATCCGTATTTGAT (site ATCAGAACTAT) | 1.88
15 | ATCAGAGCATGGACCGGTTTTCCCGGTAATCCGTATTTGTC (site ATCAGAGCTGA) | 1.82
16 | ATCATGGCATGGACCGGTTTTCCCGGTAATCCGTATTTGCA (site ATCATGGCTTG) | 2.21
17 | ATCCAAGCATGGACCGGTTTTCCCGGTAATCCGTATTTGTG (site ATCCAAGCTCA) | 1.51
18 | ATCCAAGCATGGACCGGTTTTCCCGGTAATCCGTATTTGTG (site ATCCAAGCTCC) | 0.0133
19 | ATCCAAGCATGGACCGGTTTTCCCGGTAATCCGTATTTGTG (site ATCCAAGCTCG) | 1.13
20 | ATCCAAGCATGGACCGGTTTTCCCGGTAATCCGTATTTGTG (site ATCCAAGCTCT) | 0.581
21 | ATCCCAGCATGGACCGGTTTTCCCGGTAATCCGTATTTGAG (site ATCCAAGCTCT) | 0.00798
22 | ATCCCAGCATGGACCGGTTTTCCCGGTAATCCGTATTTGAG (site ATCCCAGCTCT) | 0.952
23 | ATCCCAGCATGGACCGGTTTTCCCGGTAATCCGTATTTGAG (site ATCCGAGCTCT) | 0.00574

Row | Sequence | recombinant UMI read abundance (log10)
24 | ATCCCAGCATGGACCGGTTTTCCCGGTAATCCGTATTTGAG (site ATCCTAGCTCT) | 0
25 | ATCCCTACATGGACCGGTTTTCCCGGTAATCCGTATTTGAG (site ATCCCTACTCT) | 0.465
26 | ATCCCTACATGGACCGGTTTTCCCGGTAATCCGTATTTGAG (site CTCCCTACTCT) | 0.196
27 | ATCCCTACATGGACCGGTTTTCCCGGTAATCCGTATTTGAG (site GTCCCTACTCT) | 0.0127
28 | ATCCCTACATGGACCGGTTTTCCCGGTAATCCGTATTTGAG (site TTCCCTACTCT) | 0.854
29 | ATCCGCTCATGGACCGGTTTTCCCGGTAATCCGTATTTGCG (site ATCCGCTCTCG) | 1.19
30 | ATCCTAGCATGGACCGGTTTTCCCGGTAATCCGTATTTGAG (site ATCCAAGCTCT) | 0.122
31 | ATCCTAGCATGGACCGGTTTTCCCGGTAATCCGTATTTGAG (site ATCCCAGCTCT) | 0.0117
32 | ATCCTAGCATGGACCGGTTTTCCCGGTAATCCGTATTTGAG (site ATCCGAGCTCT) | 0.0408
33 | ATCCTAGCATGGACCGGTTTTCCCGGTAATCCGTATTTGAG (site ATCCTAGCTCT) | 0.651
34 | ATCCTAGCATGGACCGGTTTTCCCGGTAATCCGTATTTGTT (site AACCTAGCTAA) | 0.00989
35 | ATCCTAGCATGGACCGGTTTTCCCGGTAATCCGTATTTGTT (site ACCCTAGCTAA) | 0.0137
36 | ATCCTAGCATGGACCGGTTTTCCCGGTAATCCGTATTTGTT (site AGCCTAGCTAA) | 0.0169
37 | ATCCTAGCATGGACCGGTTTTCCCGGTAATCCGTATTTGTT (site ATCCTAGCTAA) | 0.0177
38 | ATCCTTGCATGGACCGGTTTTCCCGGTAATCCGTATTTGAT (site ATCCTTGCTAT) | 2.19
39 | ATCGACCCATGGACCGGTTTTCCCGGTAATCCGTATTTGGT (site ATCGACCCTAC) | 0
40 | ATCGACCCATGGACCGGTTTTCCCGGTAATCCGTATTTGTG (site ATCGACCCTCA) | 0.0241
41 | ATCGCTGCATGGACCGGTTTTCCCGGTAATCCGTATTTGCC (site ATCGCTGCTGG) | 2.27
42 | ATCGGGTCATGGACCGGTTTTCCCGGTAATCCGTATTTGGT (site ATCGGGTCTAC) | 1.85
43 | ATCGTATCATGGACCGGTTTTCCCGGTAATCCGTATTTGTC (site ATCGTATCTGA) | 3.35
44 | ATCGTCCCATGGACCGGTTTTCCCGGTAATCCGTATTTGAT (site ATCGTCCCTAT) | 0.563
45 | ATCTACCCATGGACCGGTTTTCCCGGTAATCCGTATTTGGC (site ATCTACCCTGC) | 0.584
46 | ATCTAGACATGGACCGGTTTTCCCGGTAATCCGTATTTGGG (site AACTAGACTCC) | 0.0333

Row | Sequence | recombinant UMI read abundance (log10)
47 | ATCTAGACATGGACCGGTTTTCCCGGTAATCCGTATTTGGG (site ACCTAGACTCC) | 0.00659
48 | ATCTAGACATGGACCGGTTTTCCCGGTAATCCGTATTTGGG (site AGCTAGACTCC) | 0.313
49 | ATCTAGACATGGACCGGTTTTCCCGGTAATCCGTATTTGGG (site ATCTAGACTCC) | 0.0102
50 | ATCTATACATGGACCGGTTTTCCCGGTAATCCGTATTTGAT (site ATCTATACTAT) | 1.02
51 | ATCTATACATGGACCGGTTTTCCCGGTAATCCGTATTTGAT (site ATCTATACTCT) | 0.147
52 | ATCTATACATGGACCGGTTTTCCCGGTAATCCGTATTTGAT (site ATCTATACTGT) | 0
53 | ATCTATACATGGACCGGTTTTCCCGGTAATCCGTATTTGAT (site ATCTATACTTT) | 0.00795
54 | ATCTATCCATGGACCGGTTTTCCCGGTAATCCGTATTTGCT (site ATCTATCCTAG) | 1.24
55 | ATCTCTGCATGGACCGGTTTTCCCGGTAATCCGTATTTGCT (site ATCTCTGCTAG) | 1.73
56 | ATCTGCCCATGGACCGGTTTTCCCGGTAATCCGTATTTGCT (site ATCTGCCCTAG) | 0.548
57 | ATCTGCTCATGGACCGGTTTTCCCGGTAATCCGTATTTGGA (site ATCTGCTCTTC) | 1.49
58 | ATCTGGGCATGGACCGGTTTTCCCGGTAATCCGTATTTGGT (site ATCTGGGCTAC) | 0.162
59 | ATCTTGGCATGGACCGGTTTTCCCGGTAATCCGTATTTGGG (site ATCTTGGCTCC) | 0.448
60 | ATGAAGACATGGACCGGTTTTCCCGGTAATCCGTATTTGCA (site AAGAAGACTTG) | 1.29
61 | ATGAAGACATGGACCGGTTTTCCCGGTAATCCGTATTTGCA (site ACGAAGACTTG) | 2.34
62 | ATGAAGACATGGACCGGTTTTCCCGGTAATCCGTATTTGCA (site AGGAAGACTTG) | 1.02
63 | ATGAAGACATGGACCGGTTTTCCCGGTAATCCGTATTTGCA (site ATGAAGACTTG) | 2.64
64 | ATGAAGACATGGACCGGTTTTCCCGGTAATCCGTATTTGGA (site AGGAAGACTTG) | 0
65 | ATGAAGACATGGACCGGTTTTCCCGGTAATCCGTATTTGGA (site ATGAAGACTTC) | 1.52
66 | ATGACAACATGGACCGGTTTTCCCGGTAATCCGTATTTGGA (site ATGACAACTTC) | 1.22
67 | ATGACGCCATGGACCGGTTTTCCCGGTAATCCGTATTTGGA (site ATGACGCCTTC) | 0.0104
68 | ATGAGCACATGGACCGGTTTTCCCGGTAATCCGTATTTGGC (site ATGAGCACTGC) | 2.98
